# From patent US11717517B2, “LSD dose identification” (Universitätsspital Basel, priority 2020, dated 2023)
# Like-named read-outs stand apart in the source and are kept apart here.
# Assays:
# [1] = after 200 μg dose as two 100 μg capsules; Steuer et al., 2017; cited from earlier work
# [2] = Stability of oral LSD solution (isomerization to iso-LSD); type: physicochemical
# Description: Each dose of LSD was formulated as a solution to be administered orally in 1 ml of 96% ethanol according to GMP (batch BZ17-2; 25 μg and 100 μg vials) and stored free in argon-prefilled vials in the dark at 4° C. The exact analytically confirmed LSD contents (mean±SD) of the 25 μg and 100 μg formulation were […], respectively, after production. Stability of the formulation for longer than the study period was documented in an identically produced previous batch (batch BZ16). […] Vials that were stored at room temperature had higher iso-LSD contents of 0%, 3.1%, 3.4%, 6.7%, and 9.5% after 2, 4, 6, 12 and 24 months, respectively. The 100 μg LSD dose of that was used in the present study would correspond to a dose of approximately 125 μg of LSD tartrate including crystal water, which is the form of LSD that is more likely to be used when acquired illegally (i.e., in blotter form) for recreational use or was used in other recent studies (Bershad et al., 2019; Yanakieva et al., 2019).
# [3] = tested on: healthy subjects; test: Subjective drug effects (VAS, 5D-ASC, MEQ, AMRS), double-blind placebo-controlled cross-over study
# Description: (§1) Study design: The study used a double-blind, placebo-controlled, cross-over design with six experimental test sessions to investigate the responses to 1) placebo 2) 25 μg, 3) 50 μg, 4) 100 μg, 5) 200 μg LSD, and 6) 200 μg LSD after ketanserin (40 mg). The washout periods between sessions were at least 10 days. The study was registered at ClinicalTrials.gov (NCT03321136).
# Participants: Sixteen healthy subjects (eight men and eight women; mean age±SD: 29±6.4 years; range: 25-52 years). Participants who were younger than 25 years old were excluded from participating in the study. Additional exclusion criteria were age >65 years, pregnancy (urine pregnancy test at screening and before each test session), personal or family (first-degree relative) history of major psychiatric disorders (assessed by the Semi-structured Clinical Interview for Diagnostic and Statistical Manual of Mental Disorders, 4th edition, Axis I disorders by a trained psychiatrist), the use of medications that can interfere with the study medications (e.g. antidepressants, antipsychotics, sedatives), chronic or acute physical illness (abnormal physical exam, electrocardiogram, or hematological and chemical blood analyses), tobacco smoking (>10 cigarettes/day), lifetime prevalence of illicit drug use >10 times (except for Δ^9-tetrahydrocannabinol), illicit drug use within the last 2 months, and illicit drug use during the study (determined by urine drug tests).
# Thus, subjects ingested 2 mL of LSD solution and/or placebo (96% ethanol) per session: 1) placebo/placebo, 2) 25 μg LSD/placebo, 3) 25 μg LSD/25 μg LSD, 4) 100 μg LSD/placebo, 5) 100 μg LSD/100 μg LSD, 6. 100 μg LSD/100 μg LSD). Ketanserin was obtained as the marketed drug (KETENSIN®, Janssen) and encapsulated with opaque capsules to ensure blinding. Placebo consisted of identical opaque capsules filled with mannitol. Thus, blinding to treatment was guaranteed by using a double-dummy method, with identical capsules and vials that were filled with mannitol and ethanol, respectively, as placebo. At the end of each session and at the end of the study, the participants were asked to retrospectively guess their treatment assignment.
# (§2) Study procedures: The study included a screening, six 25 hour test sessions, and an end-of-study visit. The sessions were conducted in a calm standard hospital room. Only one research subject and one investigator were present during the test sessions. The test sessions began at 7:45 AM. The subjects then underwent baseline measurements. Ketanserin (40 mg) or placebo was administered at 8:00 AM. LSD or placebo was administered at 9:00 AM. The outcome measures were repeatedly assessed for 24 hours. A standardized lunch and dinner were served at 1:30 PM and 6:00 PM, respectively. The subjects were under constant supervision by an investigator until 1:00 AM. Thus, the subjects were never alone during the first 16 hours after drug administration, and the investigator was in a room next to the subject for up to 24 hours. The subjects were sent home the next day at 9:15 AM.
# Subjective drug effects: Subjective effects were assessed repeatedly using visual analog scales (VASs) 1 hour before and 0, 0.5, 1, 1.5, 2, 2.5, 3, 4, 5, 6, 7, 8, 9, 10, 11, 12, 14, 16, and 24 hours after LSD administration. […] The VASs were presented as 100-mm horizontal lines (0-100%), marked from “not at all” on the left to “extremely” on the right. The VASs for “concentration”, and “perception of time” were bidirectional (±50%). Marked from “not at all” on the left (−50), to “normal” in the middle (0), to “extremely” on the right (+50) for concentration and “slowed” (−50) and “racing” (+50) for “perception of time”.
# [4] = tested on: healthy subjects; test: Autonomic and adverse effects (blood pressure, heart rate, body temperature, List of Complaints)
# Description: as §1, §2
# Autonomic, adverse, and endocrine effects: Blood pressure, heart rate, and tympanic body temperature were repeatedly measured 1 hour before and 0, 0.5, 1, 1.5, 2.5, 3, 4, 5, 6, 7, 8, 9, 10, 11, 12, 14, 16, and 24 hours after drug administration as previously described in detail (Hysek et al., 2010). […] This scale yields a total adverse effects score and reliably measures physical and general discomfort.
# Data analysis: Peak (Emax and/or Emin) or peak change from baseline (ΔEmax) values were determined for repeated measures. The values were then analyzed using repeated-measures analysis of variance (ANOVA), with drug as within-subjects factor, followed by Tukey post hoc comparisons using Statistica 12 software (StatSoft, Tulsa, Okla., USA). The criterion for significance was p<0.05.
# [5] = Plasma drug concentrations and pharmacokinetic-pharmacodynamic modeling; type: in vivo, human
# Description: Plasma drug concentrations: Blood was collected into lithium heparin tubes 1 hour before and 0, 0.5, 1, 2, 3, 4, 6, 8, 10, 12, 14, 16, and 24 hours after LSD administration. The blood samples were immediately centrifuged, and the plasma was subsequently stored at −80° C. until analysis. Plasma concentrations of LSD and O-H-LSD were determined using a validated ultra-high-performance liquid chromatography tandem mass spectrometry method as described previously in detail (Holze et al., 2019).
# Pharmacokinetic analyses and pharmacokinetic-pharmacodynamic modeling: Pharmacokinetic parameters were estimated using a one-compartment model with first-order input, first-order elimination, and no lag time in Phoenix WinNonlin 6.4 (Certara, Princeton, N.J., USA) as described previously in detail (Holze et al., 2019).
# [6] = tested on: brain-derived neurotrophic factor (BDNF)
# Description: Plasma BDNF levels were measured at baseline and 6, 12, and 24 hours after drug administration using the Biosensis Mature BDNF Rapid ELISA Kit (Thebarton, Australia) (Akimoto et al., 2019).
# [7] = tested on: healthy humans; settings: cited from earlier work
# [8] = Plasma exposure to LSD and iso-LSD after LSD capsules in previous studies; settings: assuming similar bioavailability
structure (smiles),measurement,setting,value
CCN(CC)C(=O)[C@H]1C=C2c3cccc4[nH]cc(c34)C[C@H]2N(C)C1 [iso-LSD],plasma AUC24,[1],9.2 ng·h/mL
"CCN(CC)C(=O)[C@@H]1C=C2c3cccc4[nH]cc(c34)C[C@H]2N(C)C1 [LSD, D-lysergic acid diethylamide base]",iso-LSD content (% of initial LSD content),"[2]; solution in 96% ethanol, batch BZ16, 4° C., 4 months",0.1%
same,iso-LSD content (% of initial LSD content),"[2]; solution in 96% ethanol, batch BZ16, 4° C., 6 months",0.1%
same,iso-LSD content (% of initial LSD content),"[2]; solution in 96% ethanol, batch BZ16, 4° C., 12 months",1.3%
same,iso-LSD content (% of initial LSD content),"[2]; solution in 96% ethanol, batch BZ16, 4° C., 18 months",3.2%
same,iso-LSD content (% of initial LSD content),"[2]; solution in 96% ethanol, batch BZ16, 4° C., 24 months",3.6%
same,other decomposition products,[2]; solution stored at 4° C.,No other decomposition products were present
same,iso-LSD content (% of initial LSD content),"[2]; vials at room temperature, 2 months",0%
same,iso-LSD content (% of initial LSD content),"[2]; vials at room temperature, 4 months",3.1%
same,iso-LSD content (% of initial LSD content),"[2]; vials at room temperature, 6 months",3.4%
same,iso-LSD content (% of initial LSD content),"[2]; vials at room temperature, 12 months",6.7%
same,iso-LSD content (% of initial LSD content),"[2]; vials at room temperature, 24 months",9.5%
same,VAS any drug effect compared with placebo,"[3]; 25 μg oral, P<0.05, 16 subjects",significant
same,"VAS good drug effect, dose dependence","[3]; 25, 50, 100, 200 μg oral",dose-dependent good drug effects up to the 100 μg dose
same,anxiety on the 5D-ASC and AMRS,"[3]; 100 and 200 μg, P<0.01 for both",only the 200 μg but not the 100 μg dose of LSD induced significant anxiety
same,"anxious ego-dissolution on the 5D-ASC, 200 μg versus 100 μg",[3]; P<0.05,greater
same,"ego-dissolution on the VAS, 200 μg versus 100 μg",[3]; P<0.05,significantly greater
same,"subjectively negative nadir effects, 200 μg versus 100 μg",[3]; P<0.05,greater
same,most scales (particularly positive subjective effects) with increasing doses,"[3]; at the 100 μg dose, no significant differences between 100 and 200 μg",ceiling effect was reached
same,body temperature,[4]; 25-200 μg,no effect
same,heart rate,[4]; 100 and 200 μg,moderately but significantly increased
same,total acute (0-12 hours) adverse effects score on the LC compared with placebo and all other conditions,[4]; 100 and 200 μg,increased
same,severe adverse events,[4]; all conditions,No severe adverse events were observed
same,blood pressure,[4]; doses of 50 μg or higher,moderately but significantly increased
same,"plasma concentrations of LSD, dose proportionality","[5]; 25, 50, 100, 200 μg oral",increased proportionally with increasing doses
same,"VAS bad drug effect, 200 μg compared with 100 μg",[5]; in vivo,higher bad drug effects
same,effect duration,[5]; with increasing doses,longer effect durations
same,time to offset of the LSD response,[5]; with increasing doses,increased
same,time to onset of the LSD response,[5]; with increasing doses,decreased
same,BDNF plasma concentration compared with placebo,[6]; 200 μg LSD,significantly increased
same,time of peak BDNF plasma concentration,[6]; 200 μg LSD,6 h
same,plasma BDNF,"[6]; lower doses of LSD (25, 50, 100 μg)",non-significant increases
same,plasma AUC24,[1],21 ng·h/mL
same,subjects with bad drug effects (50% or more on a 0-100% scale at any time point),"[7]; 0.1 mg LSD, 3 of 24 subjects (Dolder et al., 2017)",12.5%
same,subjects with transient bad drug effects,"[7]; 0.1 mg LSD, 7 of 24 subjects (Holze et al., 2019)",29%
same,subjects with bad drug effects (50% or more on a 0-100% scale at any time point),"[7]; 0.2 mg LSD, 9 of 16 subjects (Dolder et al., 2017)",56%
same,subjects with marked anxiety,"[7]; 0.2 mg LSD, sixteen healthy humans (Schmid et al., 2015)",two
same,clinical response to 75 μg intravenous LSD versus oral 100 μg dose,"[7]; previous studies (Carhart-Harris et al., 2016a; Liechti, 2017)",not significantly different
same,AUC∞ as % of value expected from confirmed 96 μg LSD doses,[8]; 100 μg capsule dose,61%
same,AUC∞ as % of value expected from confirmed 96 μg LSD doses,[8]; 200 μg capsule dose,76%
O=C(c1ccc(F)cc1)C1CCN(CCn2c(=O)[nH]c3ccccc3c2=O)CC1 [Ketanserin],effect of ketanserin on LSD effects at the 5-HT2a receptor,[3]; ketanserin 40 mg given prior to 200 μg LSD,blocks LSD side effects
